From patent publication US20230357447A1, “TUMOR ACTIVATED MULTISPECIFIC ANTIBODIES FOR TARGETING CD28 AND PD-L1 AND METHODS OF USE THEREOF” (Janux Therapeutics, Inc., priority 2022, published 2023)

Test system: anti-CD28 scFv
Test: Phage binding ELISA (panning) of clonal phage on anti-CD28 scFv, with or without CD28 soluble protein
Details: for CD28 scFv signal in presence of CD28 / CD28 scFv signal / Backgroud signal: Phage binding ELISA; for CD28 scFv signal in presence of CD28: captured anti-CD28 scFv pre-incubated with CD28 soluble protein; for CD28 scFv signal: captured biotinylated anti-CD28 scFv, blocking buffer alone; for Backgroud signal / Phage binding ELISA Backgroud signal: clonal phage supernatant; for Backgroud signal: background wells; for Phage binding ELISA Backgroud signal: background signal
Description: Clonal phage were harvested as crude supernatants and screened via standard enzyme linked immunosorbent assays (ELISAs). […] Prior to the addition of clonal phage, wells were incubated with blocking buffer and CD28 soluble protein or blocking buffer alone. Without washing or aspirating, clonal phage supernatants were then added to the wells and incubated for a short time. Wells were then washed followed by detection of bound phage using a horse radish peroxidase conjugated anti-M13 antibody. Clonal phage of interest were then sent for sequence analysis.

Substance | Backgroud signal | Phage binding ELISA Backgroud signal | also measured
Phage-93 (MDWCPRYLWTVCFS) | 0.115 |  | CD28 scFv signal in presence of CD28: 0.372; CD28 scFv signal: 2.582
Phage-94 (MDWCPRDLWSLCFY) | 0.065 |  | 
Phage-95 (MDWCPRFLWSECFN) | 0.062 |  | 
Phage-96 (MDWCPRTLWAYCFN) | 0.070 |  | CD28 scFv signal in presence of CD28: 0.584; CD28 scFv signal: 2.571
Phage-97 (MDWCPKDLWDYCFA) | 0.078 |  | 
Phage-98 (MDWCPKYLWDVCFN) | 0.096 |  | CD28 scFv signal in presence of CD28: 0.422; CD28 scFv signal: 2.566
Phage-99 (MDWCPRYLWNMCFH) | 0.114 |  | CD28 scFv signal in presence of CD28: 0.404; CD28 scFv signal: 2.564
Phage-100 (MDWCPRYLWTECFN) | 0.062 |  | 
Phage-109 (MDWCPKNLWHVCFN) | 0.081 |  | CD28 scFv signal in presence of CD28: 0.248; CD28 scFv signal: 2.530
Phage-110 (MDWCPRYLWDECFN) | 0.069 |  | CD28 scFv signal in presence of CD28: 0.283; CD28 scFv signal: 2.529
Phage-111 (MDWCPFYLWNECFY) | 0.099 |  | CD28 scFv signal in presence of CD28: 0.594; CD28 scFv signal: 2.528
Phage-112 (MHWCPRALWDVCYN) | 0.077 |  | CD28 scFv signal in presence of CD28: 0.240; CD28 scFv signal: 2.528
Phage-113 (MDWCPRDLWNVCFF) | 0.164 |  | CD28 scFv signal in presence of CD28: 0.137; CD28 scFv signal: 2.520
Phage-114 (MDWCPRYLWFECFA) | 0.066 |  | 
Phage-115 (MDWCPRYLWHECFN) | 0.105 |  | CD28 scFv signal in presence of CD28: 0.421; CD28 scFv signal: 2.490
Phage-116 (MDWCPRDLWYACFA) | 0.072 |  | 
Phage-117 (MDWCPRYLWFECFS) | 0.079 |  | 
Phage-118 (MDWCPRHLWDECFF) | 0.074 |  | 
Phage-119 (MDWCPRYLWHMCYS) | 0.129 |  | 
Phage-120 (MDWCPRDLWHACFS) | 0.074 |  | 
Phage-121 (MDWCPRDLWHVCFF) | 0.068 |  | 
Phage-122 (MDWCPRDLWDQCYA) | 0.059 |  | 
Phage-123 (MDWCPIHLWNECFA) | 0.104 |  | 
Phage-124 (MDWCPRPLWDMCFF) | 0.063 |  | 
Phage-125 (MDWCPVSLWHVCFY) | 0.107 |  | 

Substance | Backgroud signal | Phage binding ELISA Backgroud signal | also measured
Phage-126 (MDWCPRFLWNECFN) | 0.072 |  | 
Phage-127 (MDWCPRALWNECFA) | 0.080 |  | 
Phage-128 (MDWCPRDLWIECFF) | 0.084 |  | 
Phage-129 (MDWCPSYLWTVCFA) | 0.062 |  | 
Phage-130 (MDWCPRYLWDACFF) | 0.066 |  | 
Phage-131 (MDWCPRSLWIYCFN) | 0.113 |  | 
Phage-132 (MDWCPTYLWFECFN) | 0.205 |  | 
Phage-133 (MDWCPRFLWDECFF) | 0.064 |  | 
Phage-134 (MDWCPSYLWHECFA) | 0.096 |  | 
Phage-135 (MDWCPKFLWHECFS) | 0.065 |  | 
Phage-136 (MHWCPIYLWDECFN) | 0.071 |  | 
Phage-137 (MDWCPRYLWHECFH) | 0.101 |  | 
Phage-138 (MDWCPTNLWHECFA) | 0.061 |  | 
Phage-139 (MDWCPRDLWDVCFA) | 0.096 |  | 
Phage-140 (MDWCPMDLWDVCFN) | 0.090 |  | 
Phage-141 (MDWCPRSLWNVCFF) | 0.106 |  | 
Phage-142 (MDWCPVILWDFCFN) | 0.066 |  | 
Phage-143 (LDWCPLNLWDLCYF) | 0.062 |  | 
Phage-144 (MDWCPRHLWYACFN) | 0.061 |  | 
Phage-145 (MDWCPKHLWIECFA) | 0.065 |  | 
Phage-146 (MDWCPRHLWSECFY) | 0.136 |  | 
Phage-147 (MHWCPRDLWVVCFN) | 0.070 |  | 
Phage-148 (MHWCPEYLWNECFA) | 0.074 |  | 
Phage-149 (MDWCPRDLWAVCFA) | 0.070 |  | 
Phage-150 (MDWCPRHLWNVCFS) | 0.058 |  | 

Substance | Backgroud signal | Phage binding ELISA Backgroud signal | also measured
Phage-151 (MDFCPISLWHECFF) | 0.081 |  | 
Phage-152 (MDWCPKYLWDKCFH) | 0.073 |  | 
Phage-153 (MDWCPRHLWDLCFF) | 0.093 |  | 
Phage-154 (MDWCPRDLWNVCFA) | 0.114 |  | 
Phage-155 (MHWCPLHLWNECYH) | 0.063 |  | 
Phage-156 (MDWCPKHLWHQCFH) | 0.058 |  | 
Phage-157 (MDWCPRSLWSYCFH) | 0.066 |  | 
Phage-158 (MDWCPRYLWTECFF) | 0.110 |  | 
Phage-159 (MAWCPMNLWDQCFF) |  | 0.070 | 
Phage-160 (MHWCPRALWHECFN) |  | 0.070 | 
Phage-161 (MDWCPRHLWDQCFA) |  | 0.150 | 
Phage-162 (MNWCPTDLWHECFN) |  | 0.087 | 
Phage-163 (MFWCPRYLWHECFN) |  | 0.086 | 
Phage-164 (MDWCPKFLWDLCFA) |  | 0.100 | 
Phage-165 (MDWCPFYLWDECFL) |  | 0.070 | 
Phage-166 (MDWCPRHLWDLCFA) |  | 0.061 | 
Phage-167 (MSWCPQDLWHVCFN) |  | 0.095 | 
Phage-168 (MDWCPKDLWHECFN) |  | 0.073 | 
Phage-169 (MDWCPRDLWNVCFN) |  | 0.100 | 
Phage-170 (MNWCPSDLWHLCFN) |  | 0.071 | 
Phage-171 (MNWCPSHLWHMCYF) |  | 0.195 | 
Phage-172 (MDWCPPYLWYECFA) |  | 0.068 | 
Phage-173 (MDWCPMNLWSECFN) |  | 0.168 | 
Phage-174 (MDWCPKHLWNECFN) |  | 0.063 | 
Phage-175 (MDWCPAYLWAECFS) |  | 0.082 | 

Substance | Backgroud signal | Phage binding ELISA Backgroud signal | also measured
Phage-176 (MDWCPSDLWHECFH) |  | 0.075 | 
Phage-177 (MDWCPVSLWDHCFN) |  | 0.075 | 
Phage-178 (LDWCPRDLWHVCFF) |  | 0.176 | 
Phage-179 (MDWCPWILWNECFN) |  | 0.141 | 
Phage-180 (MHWCPRYLWDECFN) |  | 0.132 | 
Phage-181 (MYWCPRDLWDVCFN) |  | 0.145 | 
Phage-182 (MHWCPRSLWNECYF) |  | 0.168 | 
Phage-183 (IDWCPRDLWALCFN) |  | 0.127 | 
Phage-184 (MHWCPINLWNECFS) |  | 0.081 | 
Phage-185 (MERCPRFLWNECFN) |  | 0.132 | 
Phage-186 (QDWCPTYLWHHCFN) |  | 0.101 | 
Phage-187 (IGKLTLCLNADLVI) |  | 0.274 | 
Phage-188 (MDWCPSYLWDQCFF) |  | 0.100 | 
Phage-189 (VDWCPRYLWHVCYN) |  | 0.064 | 
Phage-190 (MDWCPRDMWAECFF) |  | 0.099 | 
Phage-191 (MDWCPRDMWYECFN) |  | 0.099 | 
Phage-192 (DVWCPKYMWSLCFN) |  | 0.101 | 
Phage-193 (MDWCPMDMWVNCFN) |  | 0.059 | 
Phage-194 (MDWCPSDMWHECYA) |  | 0.062 | 
Phage-195 (MDWCPKHMWFMCFN) |  | 0.101 | 
Phage-196 (MDWCPRYMWYQCFS) |  | 0.079 | 
Phage-197 (MDWCPRHMWYECFF) |  | 0.129 | 
Phage-198 (MDWCPRAMWNHCFN) |  | 0.321 | 
Phage-199 (MDWCPRNMWAQCFA) |  | 0.102 | 
